Biological target: T1, G3BP1 (Homo sapiens, UniProt Q13283)
T1 construct: full-length, EGFP-tagged (mEGFP), recombinant in E. coli BL21(DE3) from pET-28a, size-exclusion purified; immobilized on CM5 chip
Assay: SPR (Biacore 8K, CM5 chip, immobilized EGFP-G3BP1, […] Langmuir fit)
Format: binding

T1 sequence (Q13283 2-466): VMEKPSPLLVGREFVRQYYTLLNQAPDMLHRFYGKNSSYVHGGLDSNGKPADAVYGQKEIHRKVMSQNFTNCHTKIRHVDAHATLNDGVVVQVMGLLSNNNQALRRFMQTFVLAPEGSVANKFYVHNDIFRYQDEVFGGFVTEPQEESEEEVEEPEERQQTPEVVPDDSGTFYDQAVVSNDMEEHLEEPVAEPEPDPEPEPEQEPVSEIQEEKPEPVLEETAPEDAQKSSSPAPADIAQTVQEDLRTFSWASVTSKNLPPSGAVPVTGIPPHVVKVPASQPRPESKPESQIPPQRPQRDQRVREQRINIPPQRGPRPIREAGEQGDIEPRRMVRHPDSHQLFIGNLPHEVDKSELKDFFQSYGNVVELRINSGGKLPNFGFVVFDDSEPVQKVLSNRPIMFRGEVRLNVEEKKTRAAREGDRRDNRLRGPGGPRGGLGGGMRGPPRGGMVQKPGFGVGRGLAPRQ

| Structure (SMILES) | Kd |
| --- | --- |
| C=C(C)[C@@H]1CC=C(C=O)CC1 [perillaldehyde] | 5.49 µM |
| CC(=NNC(=O)c1ccccc1O)c1ccccc1O [C108] | 2.71 µM |

— PMC11984871, “Perillaldehyde Improves Parkinson‐Like Deficits by Targeting G3BP Mediated Stress Granule Assembly in Preclinical Models” (Advanced Science, 2025)
